The target in one assay is RIPK1 (Homo sapiens (Human), UniProt Q13546). The experiment in a line: RIPK1 ADP-Glo biochemical kinase assay. Here is the method:
The final reaction volume was 5.0ul.
Adding 5 μl of ADP-Glo™ terminated the reaction.
On the technique in general: In ADP-Glo the light output rises with the ADP produced.

The test system of another assay is U937 cells. The experiment in a line: U937 cell necroptosis assay (TNFa + zVAD, CellTiter-Glo). To be noted: Homo sapiens. The class given is cell-based, human. In short, it runs like this: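 Necroptosis was induced with TNFa at 2 ng/mL final for 18 h at 37 °C, following 1 h compound pre-incubation in the presence of zVAD-fmk (60 uM for U937 plating medium, 40 uM for L929 medium). Luminescent CellTiter-Glo signal gave relative cell survival.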

The subject of the next assay is L929 cells. The experiment in a line: L929 cell necroptosis assay (TNFa + zVAD, CellTiter-Glo). The assay is classed as cell-based, murine. To be noted: Mus musculus. In short, it runs like this:
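Necroptosis was read as CellTiter-Glo luminescence 18 hours after TNFa stimulation at 37° C, 5% CO2. Prior to that, L929 cells (10K/well, plated 18 h) received fresh medium with 40 uM zVAD-fmk plus 4-fold serially diluted compound.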

The mark [1] stands for this setting: read-out: RIPK1 ADP-Glo Kinase (IC50).
Where [2] appears, read: U-937, U937 cells, TNFa + zVAD, read-out: U937 Zvad TNF CTG Recovery, U937, TNFa + zVAD (IC50).
Setting [3] is: L929, L929 cells, TNFa + zVAD, read-out: L929-CTG-recovery, L929, TNFa + zVAD (IC50).

What is called IC50 is the point on the concentration scale where inhibition reaches its midpoint.

Where two headings read alike, the source gives them in different places.

Chain of RIPK1 (Q13546 whole entry, species assumed): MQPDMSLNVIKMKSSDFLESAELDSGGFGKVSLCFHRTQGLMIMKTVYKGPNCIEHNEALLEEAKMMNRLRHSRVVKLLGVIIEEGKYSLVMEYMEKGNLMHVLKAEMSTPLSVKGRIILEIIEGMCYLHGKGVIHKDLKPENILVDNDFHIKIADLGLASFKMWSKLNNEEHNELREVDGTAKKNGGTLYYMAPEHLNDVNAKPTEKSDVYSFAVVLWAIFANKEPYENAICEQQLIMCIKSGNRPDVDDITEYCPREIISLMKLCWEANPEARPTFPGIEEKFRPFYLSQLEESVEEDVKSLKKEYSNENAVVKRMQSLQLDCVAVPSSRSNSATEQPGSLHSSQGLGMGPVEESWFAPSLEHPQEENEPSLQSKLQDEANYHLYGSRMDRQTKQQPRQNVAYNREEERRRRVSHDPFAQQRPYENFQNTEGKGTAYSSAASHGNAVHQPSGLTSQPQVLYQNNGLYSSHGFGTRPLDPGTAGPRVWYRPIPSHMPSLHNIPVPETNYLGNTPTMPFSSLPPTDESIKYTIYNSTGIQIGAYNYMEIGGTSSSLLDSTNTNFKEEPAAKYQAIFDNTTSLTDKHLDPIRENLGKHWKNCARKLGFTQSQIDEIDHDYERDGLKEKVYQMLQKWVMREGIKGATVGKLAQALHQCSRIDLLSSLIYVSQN

For the compound `CN1C(=O)[C@@H](NC(=O)c2cc(Oc3ccc(F)cc3F)ccn2)COc2ccc(C#CC(C)(C)O)cc21` [Compound I-105, (S)-4-(2,4-difluorophenoxy)-N-(7-(3-hydroxy-3-methylbut-1-yn-1-yl)-5-methyl-4-oxo-2,3,4,5-tetrahydrobenzo[b][1,4]oxazepin-3-yl)picolinamide], the 50% inhibitory concentration (IC50) at RIPK1 (setting [1]) came to 31.2 nM; with U937 cells (setting [2]), 9.3 nM; with L929 cells (setting [3]), 254 nM.
In the same order, the values of `CN1C(=O)[C@@H](NC(=O)c2cc(Oc3ccccc3)ccn2)COc2ccc(C#Cc3cn(C)cn3)cc21` [Compound I-203, (S)—N-(5-methyl-7-((1-methyl-1H-imidazol-4-yl)ethynyl)-4-oxo-2,3,4,5-tetrahydrobenzo[b][1,4]oxazepin-3-yl)-4-phenoxypicolinamide] are 23.4 nM, 0.4 nM and 4 nM.
For `CN1C(=O)[C@@H](NC(=O)c2n[nH]c(Cc3ccccc3)n2)COc2cc(C#CC3(O)COC3)ccc21` [Compound I-73, (S)-5-benzyl-N-(8-((3-hydroxyoxetan-3-yl)ethynyl)-5-methyl-4-oxo-2,3,4,5-tetrahydrobenzo[b][1,4]oxazepin-3-yl)-1H-1,2,4-triazole-3-carboxamide], in that order: 42.9 nM, 11.7 nM and 2.7 nM.
In the same order, the values of `CN1C(=O)[C@@H](NC(=O)c2cc(Oc3c(F)cccc3F)ccn2)COc2ccc(C#CC(C)(C)O)cc21` [Compound I-118, (S)-4-(2,6-difluorophenoxy)-N-(7-(3-hydroxy-3-methylbut-1-yn-1-yl)-5-methyl-4-oxo-2,3,4,5-tetrahydrobenzo[b][1,4]oxazepin-3-yl)picolinamide] are 27.6 nM, 1 nM and 83 nM.
For the compound `CN1C(=O)[C@@H](NC(=O)c2ncn(Cc3ccccc3)n2)COc2ccc(C#CC(C)(C)C)cc21` [Compound I-48, (S)-1-benzyl-N-(7-(3,3-dimethylbut-1-yn-1-yl)-5-methyl-4-oxo-2,3,4,5-tetrahydrobenzo[b][1,4]oxazepin-3-yl)-1H-1,2,4-triazole-3-carboxamide], the 50% inhibitory concentration (IC50) on RIPK1 (setting [1]) was found to be 62.4 nM; with U937 cells (setting [2]), 1.6 nM; with L929 cells (L929 cells, TNFa + zVAD, read-out: L929-CTG-recovery, L929, TNFa + zVAD (IC50)) it was 0.5 nM.
Regarding `CN1C(=O)[C@@H](NC(=O)c2n[nH]c(Cc3ccc(F)cc3F)n2)COc2ccc(CCC(=O)N3CCCC3)cc21` [Compound I-34, (S)-5-(2,4-difluorobenzyl)-N-(5-methyl-4-oxo-7-(3-oxo-3-(pyrrolidin-1-yl)propyl)-2,3,4,5-tetrahydrobenzo[b][1,4]oxazepin-3-yl)-1H-1,2,4-triazole-3-carboxamide], the IC50 on RIPK1 (setting [1]) is 49.2 nM; with U937 cells (setting [2]), 22.2 nM; in the assay on L929 cells (setting [3]), 9590 nM.
In the same order, the values of `COC(C)(C)C#Cc1ccc2c(c1)N(C)C(=O)[C@@H](NC(=O)c1n[nH]c(Cc3ccccc3)n1)CO2` [Compound I-61, (S)-5-benzyl-N-(7-(3-methoxy-3-methylbut-1-yn-1-yl)-5-methyl-4-oxo-2,3,4,5-tetrahydrobenzo[b][1,4]oxazepin-3-yl)-1H-1,2,4-triazole-3-carboxamide] are 65.4 nM, 3.4 nM and 1.3 nM.
With `CN1C(=O)[C@@H](NC(=O)c2cc(Oc3ccccc3)ccn2)COc2ccc(C#CC(C)(C)N3CCOCC3)cc21` [Compound I-206, (S)—N-(5-Methyl-7-(3-methyl-3-morpholinobut-1-yn-1-yl)-4-oxo-2,3,4,5-tetrahydrobenzo[b][1,4]oxazepin-3-yl)-4-phenoxypicolinamide], the figures for the IC50 against RIPK1, in the assay on U937 cells (setting [2]) and in the assay on L929 cells (setting [3]) were 55.6 nM, 0.6 nM and 41.5 nM, respectively.
For the compound `CN1CC(O)(C#Cc2ccc3c(c2)N(C)C(=O)[C@@H](NC(=O)c2cc(Oc4ccccc4)ccn2)CO3)C1` [Compound I-137, (S)—N-(7-((3-hydroxy-1-methylazetidin-3-yl)ethynyl)-5-methyl-4-oxo-2,3,4,5-tetrahydrobenzo[b][1,4]oxazepin-3-yl)-4-phenoxypicolinamide], the half-inhibitory concentration (IC50) on RIPK1 (setting [1]) is 23.6 nM; with U937 cells (U-937, read-out: U937 Zvad TNF CTG Recovery, U937, TNFa + zVAD (IC50), U937 cells, TNFa + zVAD), 5 nM; in the assay with L929 cells (L929, read-out: L929-CTG-recovery, L929, TNFa + zVAD (IC50), L929 cells, TNFa + zVAD) it was 333 nM.
Consider `CN1C(=O)[C@@H](NC(=O)c2n[nH]c(Cc3ccccc3)n2)COc2ccc(C#CCCOc3ccc4cccnc4c3)cc21` [Compound I-41, (S)-5-benzyl-N-(5-methyl-4-oxo-7-(4-(quinolin-7-yloxy)but-1-yn-1-yl)-2,3,4,5-tetrahydrobenzo[b][1,4]oxazepin-3-yl)-1H-1,2,4-triazole-3-carboxamide], for which the half-maximal inhibitory concentration (IC50) at RIPK1 (setting [1]) amounted to 80 nM; with U937 cells (setting [2]) it was 5.2 nM; in the assay with L929 cells (setting [3]), 1.6 nM.
In the case of `CN1C(=O)[C@@H](NC(=O)c2cc(Oc3ccc(F)cc3)ccn2)COc2ccc(C#CC3(O)COC3)cc21` [Compound I-111, (S)-4-(4-fluorophenoxy)-N-(7-((3-hydroxyoxetan-3-yl)ethynyl)-5-methyl-4-oxo-2,3,4,5-tetrahydrobenzo[b][1,4]oxazepin-3-yl)picolinamide], the figures for the IC50 at RIPK1 (setting [1]), in the assay on U937 cells (setting [2]) and in the assay on L929 cells (setting [3]) were 21.8 nM, 3.1 nM and 99.9 nM, respectively.
In the same order, the values of `CN1C(=O)[C@@H](NC(=O)c2cc(Oc3ccc(F)cc3F)ccn2)COc2ccc(C#CC3(O)COC3)cc21` [Compound I-114, (S)-4-(2,4-difluorophenoxy)-N-(7-((3-hydroxyoxetan-3-yl)ethynyl)-5-methyl-4-oxo-2,3,4,5-tetrahydrobenzo[b][1,4]oxazepin-3-yl)picolinamide] are 20.2 nM, 4.7 nM and 90.4 nM.
In the same order, the values of `CN1C(=O)[C@@H](NC(=O)c2n[nH]c(Cc3ccccc3)n2)COc2ccc(C#C[C@@]3(O)CO[C@@H]4[C@@H](OC(=O)c5ccccc5)CO[C@@H]43)cc21` [Compound I-74, (3S,3aR,6R,6aS)-6-(((S)-3-(5-benzyl-1H-1,2,4-triazole-3-carboxamido)-5-methyl-4-oxo-2,3,4,5-tetrahydrobenzo[b][1,4]oxazepin-7-yl)ethynyl)-6-hydroxyhexahydrofuro[3,2-b]furan-3-yl benzoate] are 51.8 nM, 1.4 nM and 0.2 nM.
In the case of `CN1C(=O)[C@@H](NC(=O)n2cc(Cc3ccccc3)cn2)COc2ccc(C#CC(C)(C)O)cc21` [Compound I-213, (S)-4-Benzyl-N-(7-(3-hydroxy-3-methylbut-1-yn-1-yl)-5-methyl-4-oxo-2,3,4,5-tetrahydrobenzo[b][1,4]oxazepin-3-yl)-1H-pyrazole-1-carboxamide], the concentration for half-maximal inhibition (IC50) on RIPK1 (setting [1]) was 35.2 nM; in the assay with U937 cells (setting [2]), 1 nM; in the assay on L929 cells (setting [3]), 45.5 nM.
For `CN1C(=O)[C@@H](NC(=O)c2cc(OC3CCC3)ccn2)COc2ccc(C#CC3(O)COC3)cc21` [Compound I-153, (S)-4-cyclobutoxy-N-(7-((3-hydroxyoxetan-3-yl)ethynyl)-5-methyl-4-oxo-2,3,4,5-tetrahydrobenzo[b][1,4]oxazepin-3-yl)picolinamide], in that order: 32.6 nM, 16.1 nM and 1240 nM.
In the same order, the values of `CN1C(=O)[C@@H](NC(=O)c2n[nH]c(Cc3ccc(F)cc3F)n2)COc2ccc(C#CC(C)(C)O)cc21` [Compound I-43, (S)-5-(2,4-difluorobenzyl)-N-(7-(3-hydroxy-3-methylbut-1-yn-1-yl)-5-methyl-4-oxo-2,3,4,5-tetrahydrobenzo[b][1,4]oxazepin-3-yl)-1H-1,2,4-triazole-3-carboxamide] are 85.4 nM, 3.8 nM and 0.9 nM.

These data come from patent publication US11407736B2 (priority 2019, dated 2022).
